From ChEMBL document CHEMBL5500372, “Novel natural osthole-inspired amphiphiles as membrane targeting antibacterials against methicillin-resistant Staphylococcus aureus (MRSA)” (Eur J Med Chem, 2024)
Activity calls are given as the source filed them. The rule behind the calls is not given here.

What was measured:
Staphylococcus aureus [1] = experiment: Antibacterial activity against methicillin-resistant Staphylococcus aureus clinical isolate 23 measured after 18 hrs by CLSI based broth microdilution method; assay type: functional
Staphylococcus aureus [2] = experiment: Antibacterial activity against methicillin-resistant Staphylococcus aureus clinical isolate 16 measured after 18 hrs by CLSI based broth microdilution method; assay type: functional
Staphylococcus aureus [3] = experiment: Antibacterial activity against methicillin-resistant Staphylococcus aureus clinical isolate 16 measured after 18 hrs in presence of peptidoglycan by checkerboard broth dilution method; assay type: functional, organism-based
[4] = Toxicity in female KM mouse assessed as effect on spleen at 20 mg/kg, sc measured after 24 hrs by H and E staining based analysis; assay type: organism-based; conditions: in vivo
Staphylococcus aureus [5] = experiment: Antibacterial activity against methicillin-resistant Staphylococcus aureus clinical isolate 16 measured after 18 hrs in presence of phosphatidylglycerol by checkerboard broth dilution method; assay type: functional
[6] = Toxicity in female KM mouse assessed as effect on histopathological abnormalities in spleen at 20 mg/kg, sc measured after 24 hrs by H and E staining based analysis; assay type: organism-based; conditions: in vivo
Cell membrane [7] = experiment: Disruption of cell membrane in methicillin-resistant Staphylococcus aureus clinical isolate 16 assessed as increase in blue fluorescence at 8 times MIC measured after 4 hrs by DAPI and PI staining based laser confocal microscopy based analysis; assay type: cell membranes
Cell membrane [8] = experiment: Induction of cytoplasmic membrane permeabilization in methicillin-resistant Staphylococcus aureus clinical isolate 16 assessed as fold increase in fluorescence intensity at 32 time MIC measured after 35 mins by SYTOX green dye based fluorescence analysis
Staphylococcus aureus [9] = experiment: Antibacterial activity against methicillin-resistant Staphylococcus aureus clinical isolate 16 infected in female KM mouse skin abscess model assessed as effect on skin lesions at 10 mg/kg, sc measured after 24 hrs; assay type: functional, organism-based
Cell membrane [10] = experiment: Induction of cell membrane disruption in methicillin-resistant Staphylococcus aureus clinical isolate 16 assessed as intact cells (Q3 region) at 4 ug/ml measured after 2 hrs by SYTO-9 and PI staining based flow cytometry analysis (reference value: 96.0%); assay type: cell membranes; conditions: dose 4.0 µg/ml
Staphylococcus aureus [11] = experiment: Antibacterial activity against methicillin-resistant Staphylococcus aureus clinical isolate 22 measured after 18 hrs by CLSI based broth microdilution method; assay type: functional
[12] = Toxicity in female KM mouse assessed as effect on histopathological abnormalities in liver at 20 mg/kg, sc measured after 24 hrs by H and E staining based analysis; assay type: organism-based; conditions: in vivo
Staphylococcus aureus [13] = experiment: Antibacterial activity against methicillin-resistant Staphylococcus aureus clinical isolate 16 infected in female KM mouse skin abscess model assessed as reduction in inflammatory cells at 5 to 10 mg/kg, sc measured after 24 hrs by H and E staining based analysis; assay type: functional, organism-based; conditions: dose 5-10 mg/kg
Cell membrane [14] = experiment: Disruption of cell membrane in methicillin-resistant Staphylococcus aureus clinical isolate 16 assessed as fold increase in intracellular ROS level at 64 ug/ml incubated for 50 mins by DCFH-DA staining based fluorescence assay; assay type: cell membranes; conditions: dose 64.0 µg/ml
[15] = Toxicity in female KM mouse skin abscess model infected with methicillin-resistant Staphylococcus aureus clinical isolate 16 assessed as effect on heart at 5 to 10 mg/kg, sc measured after 24 hrs by H and E staining based analysis; assay type: organism-based; conditions: in vivo, dose 5-10 mg/kg
[16] = Toxicity in female KM mouse assessed as effect on white blood cell at upto 20 mg/kg, sc measured after 24 hrs; assay type: organism-based; conditions: in vivo
Cell membrane [17] = experiment: Disruption of cell membrane in methicillin-resistant Staphylococcus aureus clinical isolate 16 assessed as increase in protein leakage incubated for 4 hrs by microspectrophotometric analysis; assay type: cell membranes; conditions: dose <= 8.0 µg/ml
L02 = experiment: Cytotoxicity in human L02 cells measured after 24 hrs by CCK-8 method; assay type: toxicity, cell-based; conditions: l02, 24 h
Staphylococcus aureus [18] = experiment: Antibacterial activity against methicillin-resistant Staphylococcus aureus clinical isolate 16 infected in female KM mouse skin abscess model assessed as smooth skin on back at 10 mg/kg, sc measured after 24 hrs; assay type: functional, organism-based
Staphylococcus aureus [19] = experiment: Antibacterial activity against methicillin-resistant Staphylococcus aureus clinical isolate 21 measured after 18 hrs by CLSI based broth microdilution method; assay type: functional
Cell membrane [20] = experiment: Induction of cytoplasmic membrane depolarization in methicillin-resistant Staphylococcus aureus clinical isolate 16 assessed as increase in fluorescence intensity at 8 to 32 time MIC measured for 10 mins by DiSC3-5 dye based fluorescence method
Cell membrane [21] = experiment: Disruption of cell membrane in methicillin-resistant Staphylococcus aureus clinical isolate 16 assessed as appearance of uneven surface at 16 ug/ml measured after 4 hrs by SEM analysis; assay type: cell membranes; conditions: dose 16.0 µg/ml
Cell membrane [22] = experiment: Induction of cell membrane disruption in methicillin-resistant Staphylococcus aureus clinical isolate 16 assessed as intact cells (Q3 region) at 64 ug/ml measured after 2 hrs by SYTO-9 and PI staining based flow cytometry analysis (reference value: 96.0%); assay type: cell membranes; conditions: dose 64.0 µg/ml
[23] = Toxicity in female KM mouse assessed as effect on CREA at upto 20 mg/kg, sc measured after 24 hrs by biochemical test; assay type: organism-based; conditions: in vivo
Staphylococcus aureus [24] = experiment: Antibacterial activity against methicillin-resistant Staphylococcus aureus clinical isolate 12 measured after 18 hrs by CLSI based broth microdilution method; assay type: functional
[25] = Toxicity in female KM mouse assessed as adverse reaction in skin at 20 mg/kg, sc measured after 24 hrs; assay type: organism-based; conditions: in vivo
[26] = Toxicity in female KM mouse assessed as effect on hematocrit in blood at upto 20 mg/kg, sc measured after 24 hrs; assay type: organism-based; conditions: in vivo
Staphylococcus aureus [27] = experiment: Antibacterial activity against methicillin-resistant Staphylococcus aureus clinical isolate 16 infected in female KM mouse skin abscess model assessed as reduction in infiltration of inflammatory cells in subcutaneous tissue at 10 mg/kg, sc measured after 24 hrs by H and E staining based analysis; assay type: functional, organism-based
Staphylococcus aureus [28] = experiment: Antibacterial activity against methicillin-resistant Staphylococcus aureus clinical isolate 17 measured after 18 hrs by CLSI based broth microdilution method; assay type: functional
Staphylococcus aureus [29] = experiment: Antibacterial activity against methicillin-resistant Staphylococcus aureus clinical isolate 16 infected in female KM mouse skin abscess model assessed as reduction in bacterial load at 5 mg/kg, sc measured after 24 hrs relative to control; assay type: functional; parameters: scale not given: the % may be the effect or the level left
[30] = Toxicity in female KM mouse assessed as redness in skin at 40 to 80 mg/kg, sc measured after 24 hrs; assay type: organism-based; conditions: in vivo, dose 40-80 mg/kg
Staphylococcus aureus [31] = experiment: Antibacterial activity against methicillin-resistant Staphylococcus aureus clinical isolate 16 infected in female KM mouse skin abscess model assessed as reduction in IL-6 level at 5 to 10 mg/kg, sc measured after 24 hrs by ELISA method; assay type: functional, organism-based; conditions: dose 5-10 mg/kg
[32] = Toxicity in female KM mouse skin abscess model infected with methicillin-resistant Staphylococcus aureus clinical isolate 16 assessed as histological abnormalities in kidney at 5 to 10 mg/kg, sc measured after 24 hrs by H and E staining based analysis; assay type: organism-based; conditions: in vivo, dose 5-10 mg/kg
Staphylococcus aureus [33] = experiment: Antibacterial activity against methicillin-resistant Staphylococcus aureus clinical isolate 16 infected in female KM mouse skin abscess model assessed as effect on abscess in back skin at 5 mg/kg, sc measured after 24 hrs; assay type: functional, organism-based
[34] = Toxicity in female KM mouse assessed as effect on kidney at 20 mg/kg, sc measured after 24 hrs by H and E staining based analysis; assay type: organism-based; conditions: in vivo
Staphylococcus aureus [35] = experiment: Antibacterial activity against Staphylococcus aureus ATCC 29213 at sub-MIC concentration measured after 20 passages by CLSI micro broth dilution method; assay type: functional, organism-based

SMILES: CCCCCCNC(=O)C[N+](C)(C)CCCCCOc1ccc2ccc(=O)oc2c1CC=C(C)C.[Br-]
- MIC (Staphylococcus aureus [1]): 2 µg/mL
- MIC (Staphylococcus aureus [2]): 1 µg/mL
- Activity (Staphylococcus aureus [3]): Active
- Activity [4]: Non-Toxic
- MIC (Staphylococcus aureus [5]): 64 µg/mL
- Activity [6]: Non-Toxic
- Activity (Cell membrane [7]): Active
- fold change (FC) (Cell membrane [8]): 50
- Activity (Staphylococcus aureus [9]): inactive
- Activity (Cell membrane [10]): 76.9%
- MIC (Staphylococcus aureus [11]): 1 µg/mL
- Activity [12]: Non-Toxic
- Activity (Staphylococcus aureus [13]): Active
- fold change (FC) (Cell membrane [14]): 7
- Activity [15]: Non-Toxic
- Activity [16]: Non-Toxic
- Activity (Cell membrane [17]): Dose-Dependent Effect
- Activity (L02): Non-Toxic
- Activity (Staphylococcus aureus [18]): Active
- MIC (Staphylococcus aureus [19]): 2 µg/mL
- Activity (Cell membrane [20]): Active
- Activity (Cell membrane [21]): Active
- Activity (Cell membrane [22]): 0%
- Activity [23]: Non-Toxic
- MIC (Staphylococcus aureus [24]): 2 µg/mL
- Activity [25]: Non-Toxic
- Activity [26]: Non-Toxic
- Activity (Staphylococcus aureus [27]): Active
- MIC (Staphylococcus aureus [28]): 1 µg/mL
- Activity (Staphylococcus aureus [29]): 99.86%
- Activity [30]: Toxic
- Activity (Staphylococcus aureus [31]): Active
- Activity [32]: Non-Toxic
- Activity (Staphylococcus aureus [33]): Active
- Activity [34]: Non-Toxic
- Activity (Staphylococcus aureus [35]): inactive
